Data taken from patent publication US8202554B2, “Extract of the family dioscoreaceae and composition for preventing or treating peripheral neuropathy comprising the same” (priority 2005, dated 2012).

Tests used:
PC 12 cell = assay: Measurement of neurite outgrowth; type: cell-based; conditions: PC12 cells, neurite length measured after 48 hours, vs ethanol control
Procedure: In an incubator with conditions including 5% CO2 and a temperature of 37° C., PC 12 cell (pheochromocytoma, ATCC Number: CRL-1721) was cultured in a RPMI 1640 medium supplemented with horse serum (10%, v/v), fetal bovine serum (5%, v/v), and 1% penicillin-streptomycin
In order to find the effect of the compound of Formula 2 on the neurite outgrowth, the mediums supplemented with 2% horse serum, 1% fetal bovine serum, and 1% penicillin-streptomycin were added to each 6-well plate coated with poly-d-lysine and then the PC12 cells were inoculated in 5×10^4 cells each well. After 24 hours, these wells were treated with 10 □/ml of ethanol, 10 □/□ of the compound of Formula 2, and 50 ng/□ of a nerve growth factor (R&D system, USA), respectively. Then, after 48 hours, the length of the neurite was measured using an inverted image contrast microscope (CK-2, Olympus, USA) (See FIG. 1 and FIG. 2)

[1] = test system: endogenous nerve growth factor; assay: Level of nerve growth factor in serum of diabetes-induced mouse (ELISA); type: in vivo, alloxan-induced diabetic ICR mice; conditions: diabetes-induced mice, compound 10 mg/kg p.o., three times per week, one month
Procedure: An alloxan-induced diabetic mouse was prepared as an animal model having diabetic neuropathy, one of the multiple neuropathies.
7-week old male ICR mice underwent alimentary abstinence for 18 hours, and then alloxan dissolved in a physiological saline was once injected to them by intraperitoneal injection in an amount of 160 mg/kg to induce diabetes. Mice that maintained their fasting blood sugar to 200 mg/dl or more for one week, that is, diabetes-induced mice were selected and then divided into a control group (n=10), an extract-administered group (n=10), and a compound-administered group (n=10). The control group was administered with 0.2 ml of a solution of dimethylsulfoxide:ethanol (3:1), the extract-administered group was administered with the extract obtained according to Example 1 dissolved in a solution of dimethylsulfoxide:ethanol (3:1) in an amount of 100 mg/kg, and the compound-administered group was administered with the compound of Formula 2 dissolved in a solution of dimethylsulfoxide:ethanol (3:1) in an amount of 10 mg/kg. The all groups were orally administered three times per one week, and the entire administration period was one month. The amount of an endogenous nerve growth factor in the serum was measured by ELISA. […]

[2] = test system: sorbitol in the sciatic nerve; assay: Change in amount of sorbitol in sciatic nerve of diabetes-induced mouse (HPLC); type: in vivo, alloxan-induced diabetic ICR mice; conditions: diabetes-induced mice, 10 mg/kg p.o. three times per week, 2 weeks
Procedure: The therapeutic effect of the compound according to the present invention on the neuropathy was identified by measuring a change in the amount of sorbitol in the sciatic nerve.
7-week old male ICR mice underwent alimentary abstinence for 18 hours, and then alloxan dissolved in a physiological saline was once injected to them by intraperitoneal injection in an amount of 160 mg/kg to induce diabetes. Mice that maintained their fasting blood sugar to 200 mg/dl or more for one week, that is, diabetes-induced mice were selected and then divided into a control group (n=3), and a compound-administered group (n=3). The control group was administered with 0.2 ml of a solution of dimethylsulfoxide:ethanol (3:1), and the compound-administered group was administered with the compound of Formula 2 dissolved in a solution of dimethylsulfoxide:ethanol (3:1) in an amount of 10 mg/kg. 7-week old male ICR mice in which diabetes was not induced were grouped as a normal group (n=3), and the normal group was administered with 0.2 ml of a solution of dimethylsulfoxide:ethanol (3:1). […] Administration-completed mice were sacrificed by cervical dislocation, and then the amount of the sorbitol in the sciatic nerve was measured by HPLC (see FIG. 8). […]

[3] = test system: endogenous nerve growth factor; assay: Level of nerve growth factor in mouse serum (ELISA); type: in vivo; conditions: normal male ICR mice, 10 mg/kg orally once, after 24 hours
Procedure: The compound of Formula 2 was dissolved in 0.2 ml of a solution of dimethyl-sulfoxide:ethanol (3:1), and then orally administered once to 7-week old male ICR mice (n=7) in an amount of 10 mg/kg. After 24 hours, the amount of an endogenous nerve growth factor was measured by ELISA. As a control group, an ICR mouse was orally administered once with 0.2 ml of the dimethylsulfoxide:ethanol (3:1). Then, the amount of a nerve growth factor in the control group was measured in the same manner as described above.

[4] = test system: sciatic nerve of diabetes-induced mouse; assay: Transmission speed of motor nerve and sensory nerve of sciatic nerve in diabetes-induced mouse; type: in vivo, alloxan-induced diabetic ICR mice; conditions: diabetes-induced mice, 10 mg/kg p.o. three times per week
Procedure: The therapeutic effect of the compound according to the present invention on the diabetic neuropathy, one of the multiple neuropathies, was identified by measuring the effect of the compound according to the present invention on the transmission speed of the motor nerve and sensory nerve in the sciatic nerve.
7-week old male ICR mice underwent alimentary abstinence for 18 hours, and then alloxan dissolved in a physiological saline was once injected to them by intraperitoneal injection in an amount of 160 mg/kg to induce diabetes. Mice that maintained their fasting blood sugar to 200 mg/dl or more for one week, that is, diabetes-induced mice were selected and then divided into a control group (n=7), and a compound-administered group (n=7). The control group was administered with 0.2 ml of a solution of dimethylsulfoxide:ethanol (3:1), and the compound-administered group was administered with the compound of Formula 2 dissolved in a solution of dimethylsulfoxide:ethanol (3:1) in an amount of 10 mg/kg. 7-week old male ICR mice in which diabetes was not induced were grouped as a normal group (n=7), and the normal group was administered with 0.2 ml of a solution of dimethylsulfoxide:ethanol (3:1). […] Administration-completed mice were sacrificed by cervical dislocation, and then the skin and muscle in the femoral region were quickly removed. Then, left and right sciatic nerves were respectively separated in a length of 20 mm or more and stored in a physiological saline while air flows through the physiological saline. The separated sciatic nerves were placed on a 20 mm round measurement plate. Then, a sensor and a stimulating probe were connected to respective neuroterminals and the electrical conductivity was measured using a digital storage oscilloscope to assess the nerve transmission speed (see FIGS. 5 and 6.)
In general, the myelin is a phospholipid membrane surrounding axons with several layers, and also called as myelin sheath. […]

[5] = test system: sciatic nerve of diabetes-induced mouse; assay: Histological comparison of sciatic nerve of diabetes-induced mouse; type: in vivo, alloxan-induced diabetic ICR mice; conditions: diabetes-induced mice, compound 10 mg/kg p.o. three times per week, 2 months; toluidine blue, 600x/1200x
Procedure: The therapeutic effect of the compound according to the present invention on the neuropathy was identified by measuring a histological change of the sciatic nerve.
7-week old male ICR mice underwent alimentary abstinence for 18 hours, and then alloxan dissolved in a physiological saline was once injected to them by intraperitoneal injection in an amount of 160 mg/kg to induce diabetes. Mice that maintained their fasting blood sugar to 200 mg/dl or more for one week, that is, diabetes-induced mice were selected and then divided into a control group (n=5), an extract-administered group (n=5), and a compound-administered group (n=3). The control group was […] with 0.2 ml of a solution of dimethylsulfoxide:ethanol (3:1), the extract-administered group was administered with the extract obtained according to Example 1 dissolved in a solution of dimethylsulfoxide:ethanol (3:1) in an amount of 100 mg/kg, and the compound-administered group was administered with the compound of Formula 2 dissolved in a solution of dimethylsulfoxide:ethanol (3:1) in an amount of 10 mg/kg. All groups were treated three times by oral administration per one week, and the entire administration period was 2 months. […]

[6] = test system: endogenous nerve growth factor; assay: Level of nerve growth factor in sciatic nerve of diabetes-induced mouse (ELISA); type: in vivo, alloxan-induced diabetic ICR mice; conditions: diabetes-induced mice, 10 mg/kg P.O three times per week, one month
Procedure: 7-week old male ICR mice underwent alimentary abstinence for 18 hours, and then alloxan dissolved in a physiological saline was once injected to them by intraperitoneal injection in an amount of 160 mg/kg to induce diabetes. Mice that maintained their fasting blood sugar to 200 mg/dl or more for one week, that is, diabetes-induced mice were selected and then divided into a control group (n=5), and a compound-administered group (n=5). The control group was administered with 0.2 ml of a solution of dimethylsulfoxide:ethanol (3:1), and the compound-administered group was administered with the compound of Formula 2 dissolved in a solution of dimethylsulfoxide:ethanol (3:1) in an amount of 10 mg/kg. The all groups were orally administered three times per one week, and the entire administration period was one month. The amount of an endogenous nerve growth factor in the sciatic nerve was measured by ELISA (see FIG. 7)
Accordingly, it is considered that the results shown in FIGS. 5 and 6 result from the nerve protecting function of the nerve growth factor.

Compound | neurite outgrowth (PC 12 cell; 50 ng/□ of nerve growth factor) | endogenous nerve growth factor in the serum relative to vehicle control group [1] | neurite outgrowth (PC 12 cell; 10 □/□ of the compound) | sorbitol in the sciatic nerve, lower than diabetes-induced control group [2] | nerve growth factor in the serum relative to control group [3] | transmission speed of the sensory nerve, higher than diabetes-induced control group ([4]; one month) | transmission speed of the motor nerve, higher than control group ([4]; two months) | transmission speed of the sensory nerve, higher than control group ([4]; two months) | histology of axon and myelin in the central part of the sciatic nerve [5] | nerve growth factor in the sciatic nerve, higher than vehicle control group [6]
nerve growth factor: nerve growth factor (R&D system, USA), positive control for neurite outgrowth [reference compound] | neurite outgrowth was induced | – | – | – | – | – | – | – | – | –
C[C@@H]1CC[C@@]2(OC1)O[C@H]1C[C@H]3[C@@H]4CC=C5C[C@@H](O)CC[C@]5(C)[C@H]4CC[C@]3(C)[C@H]1[C@@H]2C [compound of Formula 2, 3beta, 25R-spirost-5-en-3-ol] | – | four | neurite outgrowth was induced | 10% | about 2.5 times | 25% | 40% | 45% | clearly observed | about 30%
